Data: PMC3284452, “Decreased defluorination using the novel beta-cell imaging agent [^18F]FE-DTBZ-d4 in pigs examined by PET” (EJNMMI Research, 2011)
Several values for one entry are separate records, joined by “and”; a condition that tells them apart may be missing. Equal entries are not always repeated. Where two headings read alike, the source gives them in different places. One block for each compound: values may come before it.

Key:
[1] = system: VMAT2; assay: In vitro homogenate saturation binding (human endocrine and exocrine pancreatic tissue homogenates); conditions: human islet vs exocrine homogenates
Experimental: Endocrine (n = 4, 80% to 85% islets) or exocrine (n = 4) tissue preparations were isolated from human pancreata and homogenized in 50 mM tris(hydroxymethyl)aminomethane [TRIS] by a Polytron PT3000 homogenator (Kinematica AG, Littau, Switzerland). The tissue homogenates (0.5 to 6 mg/mL) were incubated in 1 mL of 50 mM TRIS with different concentrations of tracer around an expected dissociation constant Kd of 3 nM. The non-displaceable binding was determined by addition of 10 to 20 μM tetrabenazine (BIOTREND Chemikalien GmbH, Cologne, Germany).
All samples were incubated at RT for 60 min to reach an equilibrium and then moved onto a 1.2 μm Whatman filter (Brandel, Gaithersburg, MD, USA; pretreated with 0.05% polyethylenimine for > 1 h) by a C-48 cell harvester (Brandel, Gaithersburg, MD, USA). The filter components associated to each group were pooled and measured in a well counter (Uppsala Imanet AB, GE Healthcare, Uppsala, Sweden). Tissue samples and references were prepared in triplicates, and filter binding controls, in duplicates.
Tissue protein content (in milligram protein per sample) was assessed by a Bio-Rad Protein Assay (Bio-Rad, Hercules, CA, USA), and absorbance was measured with an EL808 microplate reader (BioTek, Winooski, VT, USA). The BP, defined as the ratio between the receptor density [Bmax] and dissociation constant [Kd], was determined by nonlinear regression.

[2] = PET/CT biodistribution in piglets; type: in vivo
Experimental: Male Swedish landrace piglets (n = 4, 15 to 17 kg, 11 to 14 weeks old) were anesthetized by Zoletil forte (Virbac, Carros Cedex, France). The animals were intubated and placed on a ventilator, and the anesthesia was maintained by 2.5% sevofluran. Normoglycemia was confirmed by determining blood glucose content (plasma glucose concentration 4.4 to 7.6 mM). The animal experiments were approved by the local ethics committee for animal research and performed in accordance with local institutional and Swedish national rules and regulations.
The PET/CT studies were performed using a Discovery ST scanner (General Electric, Milwaukee, WI, USA). All scans were acquired in 2D mode and reconstructed by OSEM iterative algorithm. Four piglets were administered 3.4 to 16.3 MBq/kg [^18F]FE-DTBZ-d4 as an intravenous [i.v.] bolus, and the biodistribution as well as the kinetics of the tracer in the abdomen was studied with a dynamic sequence over 90 min (the head first, prone, 4 frames × 30 s, 3 × 1 min, 5 × 3 min and 14 × 5 min). Arterial blood samples were acquired during the first 90 min, and both the plasma- and whole blood volume-corrected tracer contents were measured using the well counter. A whole-body PET/CT examination was performed 100 to 120 min post-administration.
The data in this study was compared to previously published PK/PD porcine data on non-deuterated [^18F]-FE-DTBZ. For details on the methodologies used in this study, see Eriksson et al..
PET and CT images were analyzed by PMOD (PMOD Technologies Ltd., Zürich, Switzerland). Values are given as means ± standard error of the mean [SEM] unless otherwise stated, and statistics are based on Student's t test.

[3] = Quantification of pancreatic uptake by one-tissue compartment model; type: in vivo, piglets; conditions: pancreas; for Kp: male, Swedish landrace, pig, intravenous; for K1, average / k2, average / K1 / k2: defluorination-corrected plasma input
From the text: A one-tissue compartment model was used to estimate the compound parameter VT as well as the tissue specific rate constants K1 to k2 in the pancreas. The Cp was used as an input function, corrected for tracer metabolism by defluorination parameter kdefluorination determined from cortical bone uptake. The kinetic parameters were estimated by the PMOD modeling module PKIN.

[4] = Radiochemical stability of formulated product (analytical HPLC); type: physicochemical; conditions: for up to 5 h
Experimental: The radiochemical purity, identity, and stability of [^18F]FE-DTBZ-d4 were determined by analytical HPLC using a reverse-phase μBondapak column (C18, 3.9 Ø × 300 mm, 10 μm, Waters Corporation) with mobile phase CH3CN/10 mM H3PO4 (15:85) and a flow rate of 3 mL/min. The effluent was monitored with an UV absorbance detector (λ = 214 nm) coupled with a radioactive detector (β-flow, Beckman Coulter, Inc., Fullerton, CA, USA). The identity of [^18F]FE-DTBZ-d4 was confirmed by co-injection with the authentic nonradioactive FE-DTBZ-d4.

[5] = Estimation of tracer defluorination by kinetic modeling of cortical bone uptake; type: in vivo, piglets; conditions: for half-life: male, Swedish landrace, pig, intravenous; for half-life / kdefluorination, average / kdefluorination: plasma; for half-life / t1/2 (defluorination) / kdefluorination, average / kdefluorination: piglets
From the text: Since the studies on [^18F]FE-DTBZ had been performed previously without metabolite correction analysis, we decided to quantify the defluorination retroactively by kinetic modeling of the cortical bone uptake. When modeling the PK/PD of a PET tracer, we generally study the relationship between three different functions (Equation 1) which we can express in a vector form; the input function [Cinput], the transfer function [HTR], and the output function [Ctissue] were defined as follows: […]
The gradual accumulation of radioactivity in the cortical bone tissue starting around 5 min after administration was assumed to consist entirely of [^18F]F^- uptake. It is difficult to delineate the cortical bone structures in the spinal column due to its relative small thickness even if isocontour thresholding is used. Partial volume effects [PVEs] will still yield kinetics containing contributions from both the cortical bone and bone marrow. […] To reduce the contribution from non-cortical sources, VOIs over the bone marrow were drawn, and the associated kinetics was subtracted from the cortical isocontour VOIs. The resulting kinetics after this operation was assessed to describe [^18F]F^- PK/PD in the cortical bone tissue and used as the output curve Ctissue for the quantification of tracer defluorination.
The Cinput of [^18F]F^- is in this specific case not created by an instantaneous bolus, but rather from a gradual reaction where [^18F]FE-DTBZ or [^18F]FE-DTBZ-d4 is the substrate and [^18F]F^- is the product. The rate of defluorination can then be expressed in a single parameter kdefluorination if we assume that the reaction is concentration-dependent and unchanging over time (or during the time frame investigated here). Cin is then uniquely determined from the arterial blood plasma curve [Cp] and kdefluorination (Equation 3): […]
The defluorination rate constant in plasma can then be determined by minimizing Equation 4: […]
All optimization was performed using MatLab 7.8.0 (MathWorks, Inc., Natick, MA, USA).

[6] = parameters: method as in PMID 20346875; conditions: piglet model, PET/CT 90 min after tracer administration; cited from earlier work
[7] = molecular target: T1, VMAT2 (Homo sapiens, UniProt Q05940); parameters: method as in PMID 20346875; conditions: human islet homogenate, described previously; cited from earlier work
T1 construct: tissue preparations were isolated from human pancreata and homogenized; from tissue; host or cells: human pancreas: endocrine (80% to 85% islets) and exocrine tissue homogenates

[8] = system: VMAT2; parameters: method as in PMID 20346875; conditions: cited from earlier work
[9] = Experimental: Arterial blood and plasma samples were measured using the well-counter. The animals were positioned with a field of view as in the [^18F]FE-DTBZ-d4 dynamic scan.
Tissue volumes of interest [VOIs] and regions of interest [ROIs] were delineated on CT images or partially summed PET images. The kinetic uptake in the cortical bone tissue for all three tracers was assessed by generating isocontour VOIs over the lumbar vertrebral bodies in CT images.
The HTR is given in Equation 2, where φ1, φ2, θ1, and θ2 are macro-parameters determined by the rate constants K1, k2, k3, and k4 [18]. VT and VS denote the total and specific binding distribution volumes, respectively:
The [^18F]F^- HTR in the cortical bone was determined by the kinetic modeling module PKIN for PMOD.

[10] = average, read-out: t1/2 (defluorination), average
[11] = read-out: Half-life stability against defluorination
[12] = individual experiments, [^18F]FE-DTBZ from retrospective analysis of earlier data
[13] = mean ± SEM as given in text/footnote
[14] = cortical spinal bone, average of 3 pigs
[15] = cortical spinal bone, individual pigs
[16] = cortical spinal bone, mean ± SEM as given in text

T1 sequence (Q05940 whole entry): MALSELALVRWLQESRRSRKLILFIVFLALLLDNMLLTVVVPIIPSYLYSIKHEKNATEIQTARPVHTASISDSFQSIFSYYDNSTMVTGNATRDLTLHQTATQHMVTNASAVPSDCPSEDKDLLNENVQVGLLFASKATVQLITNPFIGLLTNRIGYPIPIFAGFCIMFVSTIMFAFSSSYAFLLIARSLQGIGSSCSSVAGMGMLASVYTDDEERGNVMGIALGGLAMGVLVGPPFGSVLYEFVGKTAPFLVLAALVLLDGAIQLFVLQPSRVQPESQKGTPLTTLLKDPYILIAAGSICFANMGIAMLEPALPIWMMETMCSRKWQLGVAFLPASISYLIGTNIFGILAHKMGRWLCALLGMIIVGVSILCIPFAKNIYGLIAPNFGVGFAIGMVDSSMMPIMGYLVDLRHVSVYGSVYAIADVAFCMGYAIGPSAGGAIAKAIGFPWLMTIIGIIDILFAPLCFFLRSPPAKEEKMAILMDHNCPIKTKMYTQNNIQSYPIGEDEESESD

- BPislet/BPexocrine ratio [1]: 16
- Bile tracer and metabolites ([2]; i.v. bolus): > 10 SUV
- Pancreas uptake after 90 min ([2]; i.v. bolus, 90 min): 1.8 SUV
- Pancreas average peak uptake ([2]; i.v. bolus, shortly after administration): 2.64 SUV
- Spinal column vertebrae VOIs uptake ([2]; within the initial minutes, no further accumulation): 1.4 SUV
- Kp ([3]; average, read-out: VT, average): 3.69
- K1, average ([3]; average): 0.81 (cc/min)/cc
- k2, average ([3]; average): 0.26 min⁻¹
- Radiochemical purity of the formulated product (stability) [4]: > 98%
- half-life [5, 10]: 7.23 h
- half-life [5, 11]: > 6 h
- kdefluorination, average ([5]; average): 2.67e-05 s⁻¹
- kdefluorination [5, 13]: 2.67e-05 ± 1.2e-05 s⁻¹
- Increase in half-life stability ([5]; vs non-deuterated analogue): six fold increase
Structure (SMILES): COc1cc2c(cc1OCCF)CCN1C[C@@H](CC(C)C)[C@H](O)C[C@H]21 [[^18F]FE-DTBZ-d4, (2R,3R,11bR)-9-(2-fluoroethoxy)-3-isobutyl-10-methoxy-2,3,4,6,7,11b-hexahydro-1H-pyrido[2,1-a]isoquinolin-2-ol]
- K1 ([3]; individual experiments): 0.65 (cc/min)/cc and 1.09 (cc/min)/cc and 1.13 (cc/min)/cc and 0.36 (cc/min)/cc
- k2 ([3]; individual experiments): 0.32 min⁻¹ and 0.25 min⁻¹ and 0.37 min⁻¹ and 0.10 min⁻¹
- VT (total distribution volume, K1/k2) ([3]; individual experiments): 2.05 cc/cc and 4.39 cc/cc and 3.06 cc/cc and 3.64 cc/cc
- t1/2 (defluorination) ([5]; individual experiments): 7.312 h and 27.507 h and 3.292 h and 13.13 h
- kdefluorination [5, 12]: 2.67e-05 s⁻¹ and 7e-06 s⁻¹ and 5.83e-05 s⁻¹ and 1.47e-05 s⁻¹

- Kp ([3]; average, read-out: VT, average): 4.17
- Kp ([3]; individual experiments, read-out: VT (total distribution volume, K1/k2)): 3.39
- K1, average ([3]; average): 0.26 (cc/min)/cc
- k2, average ([3]; average): 0.064 min⁻¹
- k2 ([3]; individual experiments): 0.08 min⁻¹ and 0.07 min⁻¹ and 0.04 min⁻¹
- VT (total distribution volume, K1/k2) ([3]; individual experiments): 4.47 cc/cc and 4.65 cc/cc
- half-life [5, 10]: 1.06 h
- half-life ([5]; individual experiments, read-out: t1/2 (defluorination)): 0.77 h
- half-life [5, 11]: > 1 h
- t1/2 (defluorination) ([5]; individual experiments): 1.46 h and 0.952 h
- kdefluorination, average ([5]; average): 0.0002 s⁻¹
- kdefluorination [5, 13]: 0.0002 ± 3.3e-05 s⁻¹
Structure (SMILES): COc1cc2c(cc1OCC[18F])CCN1CC(CC(C)C)C(O)CC21 (centres unmarked) [[^18F]FE-DTBZ]
- Spinal column uptake at the end of the experiments [6]: 3.1 SUV
- K1 ([3]; individual experiments): 0.27 (cc/min)/cc and 0.30 (cc/min)/cc and 0.20 (cc/min)/cc
- kdefluorination [5, 12]: 0.00025 s⁻¹ and 0.000132 s⁻¹ and 0.0002023 s⁻¹
- BPislet [7]: 110.4 femtomoles per milligram protein per nanoMolar
- BPislet/BPexocrine ratio ([8]; from previously described BP values): 11.2
- BPexocrine ([8]; human exocrine homogenate, described previously): 9.8 femtomoles per milligram protein per nanoMolar

Structure (SMILES): [18FH] [[^18F]F^-, Fluorine-18 fluoride]
- Plasma delay, average ([9]; cortical spinal bone model, average of 3 pigs): 25.67 s
- Plasma delay ([9]; cortical spinal bone model, individual pigs): 25.6 s and 23.5 s and 27.9 s
- K1, average [9, 14]: 0.57 (cc/min)/cc
- VS, average [9, 14]: 27.53 cc/cc
- VS/VT, average [9, 14]: 0.99
- VT, average [9, 14]: 27.9 cc/cc
- k2, average [9, 14]: 1.54 min⁻¹
- k3, average [9, 14]: 0.42 min⁻¹
- k4, average [9, 14]: 0.0058 min⁻¹
- K1 [9, 15]: 0.71 (cc/min)/cc and 0.44 (cc/min)/cc and 0.56 (cc/min)/cc
- VS (specific binding distribution volume) [9, 15]: 35.9 cc/cc and 19.8 cc/cc and 26.9 cc/cc
- VS/VT [9, 15]: 0.99
- VT (total distribution volume) [9, 15]: 36.4 cc/cc and 20.1 cc/cc and 27.2 cc/cc
- k2 [9, 15]: 1.27 min⁻¹ and 1.78 min⁻¹ and 1.57 min⁻¹
- k3 [9, 15]: 0.39 min⁻¹ and 0.5 min⁻¹ and 0.38 min⁻¹
- k4 [9, 15]: 0.0061 min⁻¹ and 0.0062 min⁻¹ and 0.0051 min⁻¹
- k3 [9, 16]: 0.42 ± 0.04 min⁻¹
- k4 [9, 16]: 0.0058 ± 0.0004 min⁻¹
- Signal coming from the nonspecific or free tracer ([9]; cortical spinal bone, model prediction): less than 1%
